Results from patent US5376679A, “Bicyclic or tricyclic biocidal compounds” (Shell Internationale Research Maatschappij B.V., priority 1988, dated 1994).
In brackets after ≈: the same amount, converted by molar mass.

Legend:
[1] = system: Erysiphe graminis f.sp. hordei; experiment: Direct antisporulant activity against barley powdery mildew (Eg); assay type: in vivo; parameters: scale not given here; details: foliar spray, 1 kg/ha; activity grade 1 or 2, not defined
Description: (f) Activity Against Barley Powdery Mildew (Erysiphe graminis f.sp. hordei; Eg) The test is a direct antisporulant one, using a foliar spray. Leaves of barley seedlings, cultivar Golden Promise, are inoculated by dusting with mildew conidia one day prior to treatment with the test compound. The inoculated plants are kept overnight at glasshouse ambient temperature and humidity prior to treatment. […] After drying, plants are returned to a compartment at ambient temperature and humidity for up to 7 days, followed by assessment. Assessment is based on the percentage of leaf area covered by sporulation compared with that on leaves of control plants.

[2] = system: Plasmopara viticola; experiment: Direct protectant activity against vine downy mildew (Pvp); assay type: in vivo; parameters: Pvp: direct protectant activity against vine downy mildew: scale not given here; details: foliar spray, 1 kg/ha; activity grade 1 or 2, not defined
Description: (a) Direct Protectant Activity Against Vine Downy Mildew (Plasmopara viticola; Pvp)
The test is a direct protectant one, using a foliar spray. The lower surfaces of leaves of whole vine plants (cv Cabernet Sauvignon) are sprayed with a solution of active material in 1:1 v/v water/acetone containing 0.04% w "Triton X-155" (trade mark) (octylphenol polyoxyethylene surfactant), at a dosage of 1 kilogram of active material per hectare using a track sprayer which delivers 620 liters/ha, and after a subsequent 24 hours under normal glasshouse conditions the lower surfaces of the leaves are inoculated by spraying with an aqueous solution containing 10^4 zoosporangia/ml. The inoculated plants are kept for 24 hours in a high humidity compartment, 5 days under normal glasshouse conditions and then returned for a further 24 hours to high humidity. Assessment is based on the percentage of leaf area covered by sporulation compared with that on control leaves.

[3] = system: Alternaria Solani; experiment: Direct protectant activity against tomato early blight (As); assay type: in vivo; parameters: As: activity against tomato early blight: scale not given here; details: foliar spray as under (a), 8 days; activity grade 1 or 2, not defined; also: dose 1000 g/ha
Experimental: (g) Activity Against Tomato Early Blight (Alternaria Solani; As). The test is a direct protectant one using a foliar spray. The upper surfaces of leaves of young tomato plants are sprayed with a solution of active material as described in (a) above. After 24 hours under normal glasshouse conditions, the upper surfaces of the leaves are inoculated by spraying with an aqueous suspension containing 10^4 spores/ml. The inoculated plants are kept for 72 hours in a high humidity compartment and are then removed to lower humidity (50-70% relative humidity). Assessment is made 8 days after inoculation.

[4] = system: Leptosphaeria nodorum; experiment: Direct antisporulant activity against wheat leafspot (Ln); assay type: in vivo; parameters: scale not given here; details: foliar spray, 1 kg/ha; activity grade 1 or 2, not defined
Experimental: (e) Activity Against Wheat Leafspot (Leptosphaeria nodorum; Ln) The test is a direct antisporulant one, using a foliar spray. Leaves of wheat plants ([…]), at the single leaf stage, are inoculated by spraying with an aqueous suspension containing 8×10^5 spores/mi. The inoculated plants are kept for 24 hours in a high humidity compartment prior to treatment. […] After drying, the plants are kept for 5 days under normal glasshouse conditions, followed by assessment. Assessment is based on the percentage of leaf area covered by sporulation compared with that on leaves of control plants.

[5] = system: Fusarium culmorum; experiment: Activity against seedling wheat blight, soil drench (Fs); assay type: in vivo; parameters: scale not given here; details: 10 kg/ha, 21 days, activity grade 1 or 2, not defined
Experimental: (d) Activity Against Seedling Wheat Blight (Fusarium culmorum; Fs)
The test is an anti-sporulant one using a soil drench. Surface sterilised wheat seeds (var Waggoner) are inoculated by soaking in an aqueous suspension containing 7×10^5 spores/ml (60 mg seed per 80 ml suspension) at 22° C. for 6 hours. The seeds are then sown in pots (5 per pot) in sand at a depth of 1 cm. 1 day after inoculation and planting the active material is applied at a rate of 10 kg/ha by pouring on a soil drench (concentration 0.36 g/l active material in 12% v/v acetone/water) evenly over the sand. The pots are then transferred to a glasshouse, kept at 25° C. and watered sparingly. 21 days after inoculation the resulting seedlings are removed from the pots and their roots are gently washed. Visual assessment is made based on lesion development on stem base and upper roots in comparison with control seedlings.

[6] = system: Puccinia Recondita; experiment: Direct protectant activity against wheat brown rust (Pr); assay type: in vivo; parameters: scale not given here; details: foliar spray, 1 kg/ha, 10 days; activity grade 1 or 2, not defined
Experimental: (i) Activity Against Wheat Brown Rust (Puccinia Recondita; Pr) The test is a direct protectant one using a foliar spray. […] The plants are then sprayed with the test compound at a dosage of 1 kg/ha using a track sprayer as described under (a). Test compounds are applied as solutions or suspensions in a mixture of acetone and water (50:50 v/v) containing 0.04% surfactant ("TWEEN 20"--Trade Mark). 18-24 hours after treatment, the seedlings are inoculated by spraying the plants from all sides with an aqueous spore suspension containing about 10^5 spores/ml. For 18 hours after inoculation, the plants are kept in high humidity conditions at a temperature of 20°-22° C. Thereafter, the plants are kept in ambient glasshouse conditions, that is, in moderate relative humidity and at a temperature of 20° C. The disease is assessed 10 days after inoculation on the basis of the percentage of the plant covered by sporulating pustules compared with that on the control plants.

[7] = system: Pseudocercosporella herpotrichoides; experiment: In vitro activity against wheat eyespot (Ph); assay type: cell-based; parameters: Ph: activity against wheat eyespot: scale not given here; details: in vitro, 100 ppm in agar, 11 days; activity grade 1 or 2, not defined
Experimental: (c) Activity Against Wheat Eyespot (Pseudocercosporella herpotrichoides; Ph)
The test is an in vitro one. Samples are prepared wherein 0.7 mls solution containing 2 mg active material dissolved in acetone is evenly dispersed in 20 ml molten half-strength potato dextrose agar (formed by dissolving 2 g potato extract, 10 g dextrose and 7.5 g agar in 1 liter of water and sterilising for 15 minutes and 121° C.) and the resulting 20 ml portions are allowed to set in 9 cm petri dishes. The concentration of active material in the resulting samples is 100 ppm. Upon setting, two plugs of 5 mm diameter taken from the advancing edge of a stock plate of a 3 to 4 week old culture of P.herpotrichoides on full strength potato dextrose agar, incubated at 20°-22° C. in darkness, are placed, equally spaced on the surface of each sample, mycelial side uppermost. The samples are incubated for 11 days at 20°-22° C. in darkness before assessment. Diametric growth is measured with the width of the plug subtracted and results compared with growth on a sample wherein 0.7 ml acetone containing no active material is dispersed in 20 ml half-strength potato agar.

[8] = system: Botrytis cinerea; experiment: Direct protectant activity against vine grey mould (Bcp); assay type: in vivo; details: foliar spray, 1 kg/ha; activity grade 1 or 2, not defined
Description: (b) Direct Protectant Activity Against Vine Grey Mould (Botrytis cinerea; Bcp) The test is a direct protectant one using a foliar spray and is effected as described under (a), with the difference that the leaves are inoculated by spraying with an aqueous solution containing 10^5 conidia/ml.

[9] = system: Staphylococcus aureus; experiment: Minimum inhibitory concentration, Staphylococcus aureus (Sa); assay type: cell-based, Staphylococcus aureus (NCIB 6571); details: 30° C., 24 and 72 hours
Experimental: (§1) In respect of S. aureus, B. subtilis and E. coli, the microorganisms were cultured in 50 ml aliquots of a tryptone soya broth in 250 ml conical flasks at 30° C. on a rotary shaker at 200 rpm for 24 hours. Tryptone soya broth was prepared by adding 17 g pancreatic digest of casein, 3 g […] digest of soyabean meal, 5 g of sodium chloride, 2.5 g of dipotassium hydrogen phosphate and 2.5 g of dextrose to 1 liter of distilled water, mixing and sterilising by autoclaving at 121° C. for 15 minutes. 1 ml aliquots of the resulting cultures were mixed with 99 ml of fresh tryptone soya broth and used as inocula for tests. […] Test procedures were as follows: (ii) Dilution Series for Other Test Bacteria, Yeast and Filamentous Fungi Dilution series from the stock solution of each compound were prepared in sterile distilled water. These contained 50, 100, 500 and 1000 ppm compound. To duplicate wells of a compartmentalised square petri dish 0.3 ml of each test compound concentration was added together with 2.7 ml of one of the microbial inocula described above. […] After incubation, in the dark, at 30° C. the wells were examined for the presence or absence of growth. Bacterial and yeast cultures were examined after 24 hours and 72 hours incubation and the fungi cultures after 3, 7 and 10 days. By means of the above tests minimum inhibitory concentrations were determined for the various test compounds.

[10] = system: Bacillus subtilis; experiment: Minimum inhibitory concentration, Bacillus subtilis (Bs); assay type: cell-based; details: 30° C., 24 and 72 hours
Experimental: as §1

[11] = system: Aspergillus niger; experiment: Minimum inhibitory concentration, Aspergillus niger (An); assay type: cell-based, Aspergillus niger (CMI 17454); details: 30° C., 3, 7 and 10 days
Experimental: (§2) Inocula of the fungi Aspergillus niger, Cladosporium resinae and Chaetomium globosum were prepared containing 5×10^5 conidia/ml in a potato dextrose broth. The potato dextrose broth was prepared by suspending 4 g potato extract and 20 g dextrose in 1 liter of distilled water, warming to achieve solution, separating into aliquots and sterilising by autoclaving at 121° C. for 15 minutes.
(§3) Test procedures were as follows:
(§4) (ii) Dilution Series for Other Test Bacteria, Yeast and Filamentous Fungi
(§5) Dilution series from the stock solution of each compound were prepared in sterile distilled water. These contained 50, 100, 500 and 1000 ppm compound. To duplicate wells of a compartmentalised square petri dish 0.3 ml of each test compound concentration was added together with 2.7 ml of one of the microbial inocula described above. This gave final concentrations of the test compound of 5, 10, 50 and 100 ppm.
(§6) After incubation, in the dark, at 30° C. the wells were examined for the presence or absence of growth. Bacterial and yeast cultures were examined after 24 hours and 72 hours incubation and the fungi cultures after 3, 7 and 10 days.
(§7) By means of the above tests minimum inhibitory concentrations were determined for the various test compounds.

[12] = system: Desulfovibrio sp.; experiment: Minimum inhibitory concentration, sulphate-reducing bacteria (Dsp); assay type: cell-based; details: 30° C., 2, 5 and 10 days
Experimental: The sulphate reducing bacteria Desulfovibrio sp. were cultured in a modified Postgate's Medium B for 48 hours at 30° C. and used directly as an inoculum. The modified Postgate's Medium B consisted of 0.5 g dipotassium hydrogen phosphate, 1 g ammonium chloride, 1 g sodium sulphate, 5 g sodium lactate, 1 g yeast extract, 0.1 ml thioglycolic acid, 0.1 ml ascorbic acid, 0.5 g ferrous sulphate heptahydrate, 750 ml aged seawater and 250 ml distilled water, pH adjusted to 7.8, divided into aliquots and sterilised by autoclaving at 121° C. for 15 minutes. […] Test procedures were as follows: (i) Suphate-reducing Bacteria Test Dilution Series Duplicate aliquots (9.9 ml) of dilution series from the stock solutions of each compound were prepared in a modified Postgate's Medium B described above. These contained 100 ppm compound. These were then inoculated with 0.1 ml of inoculum. After incubation at 30° C., the presence or absence of growth--as indicated by a blackening of the medium due to ferrous sulphide production--was recorded at 2, 5 and 10 days. […] By means of the above tests minimum inhibitory concentrations were determined for the various test compounds.

[13] = system: Escherichia coli; experiment: Minimum inhibitory concentration, Escherichia coli (Ec); assay type: cell-based, Escherichia coli (NCIB 9517); details: 30° C., 24 and 72 hours
Experimental: as §1

[14] = system: Cladosporium resinae; experiment: Minimum inhibitory concentration, Cladosporium resinae (Cr); assay type: cell-based; details: Amorphotheca resinae, 30° C., 3, 7 and 10 days
Experimental: as §2, §3, §4, §5, §6, §7

[15] = system: Saccharomyces cerevisiae; experiment: Minimum inhibitory concentration, yeast (Sc); assay type: cell-based, Saccharomyces cerevisiae (ATCC 9763); details: 30° C., 24 and 72 hours
Experimental: Inocula of S. cerevisiae were prepared as for S. aureus, B. subtilis and E. coli, but using yeast malt broth in place of the typtone soya broth. The yeast malt broth was prepared by suspending 3 g yeast extract, 3 g malt extract, 5 g peptone and 10 g dextrose in 1 liter of distilled water, warming to achieve solution and sterilising by autoclaving at 121° C. for 15 minutes.
as §3, §4, §5, §6, §7

[16] = system: Chaetomium globosum; experiment: Minimum inhibitory concentration, Chaetomium globosum (Chg); assay type: cell-based; details: 30° C., 3, 7 and 10 days
Experimental: as §2, §3, §4, §5, §6, §7

SMILES | Eg: activity against barley powdery mildew [1] | Pvp: direct protectant activity against vine downy mildew [2] | As: activity against tomato early blight [3] | Ln: activity against wheat leafspot [4] | Fs: activity against seedling wheat blight [5] | Pr: activity against wheat brown rust [6] | Ph: activity against wheat eyespot [7] | Bcp: direct protectant activity against vine grey mould [8] | MIC [9] [µg/mL] | MIC [10] [µg/mL] | MIC [11] [µg/mL] | MIC [12] [µg/mL] | MIC [13] [µg/mL] | MIC [14] [µg/mL] | MIC [15] [µg/mL] | MIC [16] [µg/mL]
COC(=O)N=[N+]([O-])c1cc(C)cc2c1OC(C)C2 (stereo not drawn) [Example 45] | 2 | 1 | 1 | – | – | – | – | – | – | – | – | – | – | – | – | –
Cc1cc2c(c([N+]([O-])=NC#N)c1)OC(C)(C)C2 [Example 7] | – | 2 | – | 1 | 1 | 2 | 1 | – | – | – | – | – | – | – | – | –
CC1(C)Cc2cccc([N+]([O-])=NC#N)c2O1 [Example 2] | – | 1 | – | – | 2 | – | 2 | 2 | – | – | – | – | – | – | – | –
CCc1cc2cccc([N+]([O-])=NC#N)c2o1 [Example 19] | 1 | – | 2 | – | 1 | 2 | 1 | – | – | – | – | – | – | – | – | –
N#CN=[N+]([O-])c1cccc2cc(-c3ccccc3)oc12 [Example 21] | – | – | – | – | – | – | – | 1 | – | – | – | – | – | – | – | –
CCCCc1cc2cccc([N+]([O-])=NC#N)c2o1 [Example 20] | – | – | – | 1 | 2 | 1 | – | – | > 100 | > 100 | 100 (≈ 411 µM) | > 100 | > 100 | 100 (≈ 411 µM) | > 100 | –
Cc1cc2c(F)ccc([N+]([O-])=NC#N)c2o1 [Example 22] | 2 | – | – | – | 2 | – | 2 | 1 | > 100 | 50 to 100 (≈ 228 to 456 µM) | 10 (≈ 45.6 µM) | 50 (≈ 228 µM) | > 100 | 10 to 25 (≈ 45.6 to 114 µM) | 25 (≈ 114 µM) | 5 (≈ 22.8 µM)
Cc1ccc([N+]([O-])=NC#N)c2c1CC(C)(C)O2 [Example 3] | – | 2 | 1 | 1 | 1 | – | 2 | 1 | – | – | – | – | – | – | – | –
N#CN=[N+]([O-])c1ccc2oc3c(c2c1)CCCC3 [Example 24] | – | 2 | 2 | – | 1 | 1 | 1 | – | – | – | – | – | – | – | – | –
